Read-outs that look alike come from different tables or passages of the source.
Key:
Caco-2 = conditions: cited from earlier work
[1] = Substrate depletion approach, in vitro clearance (CLint) with rat liver S9; type: in vitro ADME; conditions: for microsomal CLint at 3 µM / CLint in liver S9 at 3 µM: Sprague-Dawley, rat, liver S9 fraction; for CLint in liver S9 at 3 µM: 3 µM substrate
Description: To develop a generic model, a fast and efficient approach needs to be applied to determine the hepatic clearance. To this end, a substrate depletion approach was used, as described by others (Jones and Houston [2004]; Obach [1999]; Obach and Reed-Hagen [2002]). Metabolic breakdown of the parent compound, referred to as “substrate depletion” is used to measure in vitro CLint of the parent compound, where the consumption rate of the parent compound using hepatic microsomes, hepatic S9 fractions or hepatocytes, is measured over a range of incubation times under linear conditions with respect to protein concentration and substrate concentration (Jones and Houston [2004]).
The CLint of the parent compounds via phase I and phase II metabolism was determined in incubations with liver S9 fraction from both male and female Sprague–Dawley rats, in the presence of all relevant co-factors NADPH, UDPGA, PAPS and acetyl CoA. To investigate whether the in vitro CLint value derived from incubations for individual reactions (with individual co-factors) is similar as the CLint value derived from incubations with all the co-factors together in one mixture, two approaches were applied. In the first approach, the parent compound was incubated with individual co-factors in Eppendorf tubes applying a final volume of 200 µL containing either 3 mM NADPH, 5 mM UDPGA (also including 5 mM MgCl2 and 0.025 mg/ml alamethicin), 0.2 mM PAPS, or 0.5 mM acetyl CoA, with 0.5 mg/ml liver S9 in 0.1 M potassium phosphate (pH 7.4) buffer. After pre-incubating the mixtures at 37 °C for 1 min, the reactions were started by adding 3 µM (final concentration) of the parent compound from a 100 times concentrated stock solution dissolved in DMSO. In the second approach, it was tested whether the methodology could be simplified by adding all the co-factors to one incubation mixture and the parent compound after pre-incubation. For both approaches, 14 time points were selected at which the reaction was terminated, being 0, 1, 2, 3, 4, 5, 7, 8.5, 10, 15, 20, 25, 30 and 45 min. To terminate the reaction 100 µL cold acetonitrile (ACN) was added to the mixture and the Eppendorf tubes were put on ice for 30 min. Subsequently, tubes were centrifuged at 15,000 rpm for 5 min (CT 15RE, Hitachi Koki Co., Ltd) and the supernatant was collected for UPLC analysis. For each incubation time point, a corresponding control was included, which was an incubation performed in the absence of co-factor(s). All incubations were performed in triplicate in three independent studies.
The concentration of the parent compound was quantified for all the incubations using UPLC analysis performed as described below. The ratio of remaining parent compound concentration between incubation sample (C compound) and the control without co-factor (C control) was calculated for each incubation time. Subsequently, the depletion curve of the parent compound [ln(C compound/C control)] against time was derived as described before (Jones and Houston [2004]; Obach [1999]; Obach and Reed-Hagen [2002]). The slope of the linear part of the depletion curve represents the elimination rate constant (k, min^−1) for elimination of the parent compound. Using the following equation, the in vitro clearance (CLint, in vitro) of the parent compound can be estimated: CLint, in vitro (µL/min/mg protein) = V (µL)/P (mg) × k (min^−1) (Obach [1999]; Sjögren et al. [2009]). V represents volume (µL) of incubation mixture and P is the protein amount (mg) in the mixture. The in vitro CLint value derived from incubations with all co-factors together in one mixture (approach 2) was compared with the sum of the CLint values derived from incubations with a single co-factor (approach 1). The in vitro CLint of the parent compound was scaled to a whole liver, assuming that the S9 protein concentration in the rat liver is 87 g/kg liver (Chiu and Ginsberg [2011]).
For BPA, the analytical method was slightly changed based on the method for E2. […]

[2] = female, pH 7.4, female Sprague–Dawley rat liver S9, all co-factors (NADPH, UDPGA, PAPS, acetyl CoA) in one mixture, read-out: Female CLint
[3] = male, pH 7.4, male Sprague–Dawley rat liver S9, all co-factors (NADPH, UDPGA, PAPS, acetyl CoA) in one mixture, read-out: Male CLint
[4] = male, pH 7.4, male Sprague–Dawley rat liver S9, individual co-factor NADPH
[5] = male, pH 7.4, male Sprague–Dawley rat liver S9, individual co-factor PAPS
[6] = male, pH 7.4, male Sprague–Dawley rat liver S9, individual co-factor UDPGA
[7] = male, pH 7.4, male Sprague–Dawley rat liver S9, read-out: CLint, SUM of incubations with individual co-factors

Female CLint ([1]; female Sprague–Dawley rat liver S9, all co-factors (NADPH, UDPGA, PAPS, acetyl CoA) in one mixture) [µl/min/mg protein] | Structure (SMILES) | Papp, Caco-2 (Caco-2; PBK model code, ref Yoshkawa et al. 2002) [x1E-6 cm/sec] | P app, Caco-2 (Caco-2; ref Yoshikawa et al. [2002]) [×10⁻⁶ cm/s] | CLint fold higher for female than for male rat liver S9 ([1]; all co-factors in one mixture) [fold] | microsomal CLint at 3 µM [1, 2] [µL/min/mg] | microsomal CLint at 3 µM [1, 3] [µL/min/mg] | CLint in liver S9 at 3 µM [1, 4] [µL/min/mg] | CLint in liver S9 at 3 µM [1, 5] [µL/min/mg] | CLint in liver S9 at 3 µM [1, 6] [µL/min/mg] | microsomal CLint at 3 µM [1, 7] [µL/min/mg]
– | CC(C)(c1ccc(O)cc1)c1ccc(O)cc1 [BPA, bisphenol A] | 20 | 20 | 1.1 | 432 ± 12.5 | 392 ± 6.7 | 60 ± 4.8 | 3.4 ± 2.1 | 340 ± 7.8 | 403 ± 9.4
65.5 ± 12.3 | C[C@]12CC[C@@H]3c4ccc(O)cc4CC[C@H]3[C@@H]1CC[C@@H]2O [E2, 17β-estradiol] | – | – | – | 65.5 | 175 ± 13.3 | 155 ± 26.7 | 4.4 ± 1.6 | 23.3 ± 0.9 | 182 ± 26.8

Source: PMC5866837, “Towards a generic physiologically based kinetic model to predict in vivo uterotrophic responses in rats by reverse dosimetry of in vitro estrogenicity data” (Archives of Toxicology, 2017)
